Results as given in patent US20240226234A1, “WNT5A PEPTIDES FOR THE TREATMENT OF ACUTE M[…]” (W[…], priority 2021, published 2024).
No end group written: not given here. *: point of attachment. For = O=C*

Assays:
[1] = tested on: HL60 cells; assay: ROS production by flow cytometry, HL60 cells; assay type: cell-based, human; settings: 72 h; for ROS production (MFI): HL60, 2D culture on HS5 stromal cells; for ROS production (mean fluorescence intensity): HL60, monoculture
Method: A panel of human myeloid leukemia cell lines (HL60, K562, KG1a, THP1 and U937) and HS-5 mesenchymal stromal cells lineage were cultured in Roswell Park Memorial Institute medium-1640 (RPMI; Sigma) containing 10% Fetal Bovine Serum (Gibco), glutamine (2 mM; Sigma), penicillin (100 μg/mL; Sigma), streptomycin (100 μg/mL; Sigma), and amphotericin B (0.25 μg/mL; Gibco). The cells were maintained in a humidified atmosphere at 37° C. and 5% CO2 and the experiments were performed when they reached exponential growth. For the assays, cells were seeded on a 24-well plate and treated or not with Foxy-5 for 72 hours.
Cells treated with Foxy or with vehicle were collected and intracellular ROS generation was measured by flow cytometry following staining with DCFDA ([…]; Sigma). Acquisition of cells was performed on a FACScalibur flow cytometer (BD) and analysis was carried out using the FlowJo software.
Leukemia cell lines were treated for 72 h with Foxy-5, at doses of 50 and 100 μM, or vehicle, stained with DCFHA dye, and analyzed by flow cytometry.

[2] = tested on: THP1 cells; assay: Transwell chemotaxis assay toward CXCL12, THP1 cells; assay type: cell-based, human; settings: THP1, Foxy-5 100 μM 72 h pretreatment, CXCL12 100 ng/mL, 24 h
Method: Leukemic cell lines, pretreated or not with Foxy-5 (72 hours of stimulation) were tested for chemotaxis in Transwell-based assays for Chemotaxis (6.5 mm diameter, 8 μm pore size; Corning). Polycarbonate membranes were incubated with poly-L-lysine (1 mg/mL) for 1 hour at 37° C. followed by saline buffer washing. Briefly, cells were collected, washed with media containing bovine serum albumin (0.1% BSA; Sigma), and then seeded at a density of 5×10^5 cells into the upper chamber of the transwell. The lower chamber was filled with media containing 0.5% BSA (negative control), media containing 10% FBS (positive control) and media 5 containing 0.5% BSA with CXCL12 (100 ng/ml; Peprotech) (Melo et al., 2014). Following 6 h or 24 h of incubation at 37° C., cells that migrated into the lower chamber were collected, centrifuged, resuspended in saline buffer and counted. The number of migrated cells was expressed as a percentage of the input, i.e., the cells number applied directly to the lower compartment in parallel wells. The migration of cells was normalized to 100%+/−standard deviation (SD) of triplicates (Favaro et al., 2013).
We investigated whether restoring of WNT5A could enable the modulation CXCL12-induced chemotaxis of leukemia cells. […]

Which “ROS production (MFI)” value ([1]; Foxy-5 50 μM) does the source give for “Foxy-5: Formylated hexapeptide fragment of WNT5A: MDGCEL (SEQ. ID. NO. 3) with methionine in position 1 as N-formyl methionine; WNT5A-mimicking compound (For-MDGCEL; listed as Homo sapiens)” here?
The value was 28.52 (range 26.37-30.00) MFI.

What about the “ROS production (MFI)” value ([1]; Foxy-5 100 μM) of the same substance?
Its value is 28.50 (range 25.03-30.30) MFI.

And the “ROS production (mean fluorescence intensity)” value ([1]; Foxy-5 50 μM)?
The value was 17.45 (range 16.40-19.30) MFI.

What about the “ROS production (mean fluorescence intensity)” value ([1]; Foxy-5 100 μM) of the same substance?
Its value is 10.32 (range 10.10-10.80) MFI.

And the “CXCL12-induced chemotaxis (migrated cells as percentage of the input, average)” value [2]?
Its value is 11.17%.
